Results taken from patent US20100292316A1, “IMPROVED THERAPEUTIC METHODS AND COMPOSITIONS COMPRISING CHROMAN RING COMPOUNDS” (Research Development Foundation, priority 2007, published 2010).

Test system: MDA-MB-435 human breast cancer cells
Assay: DNA microarray gene expression after α-TEA treatment
Assay type: cell-based
Design: scale not given here
Settings: MDA-MB-435, 40 μM, 12 h
Description: In order to identify genes that are involved in α-TEA induced apoptosis in cancer cells the gene expression levels in MDA-MB-435 human breast cancer cells were analyzed after treatment with α-TEA. The MDA-MB-435 cell line is an estrogen-receptor negative/estrogen-nonresponsive epithelial cell line isolated from the pleural effusions of a human with breast cancer (Price et al., 1990). DNA microarray data obtained from treatment of MDA-MB-435 cells with 40 μM α-TEA for 12 h identified approximately 400 genes that gave consistent responses to α-TEA treatment. Genes that passed a minimum quality control threshold were analyzed using online software (The Database for Annotation, Visualization and Integrated Discovery (DAVID)).
MDA-MB-435 cells were cultured in MEM with Earle's balanced salts (Life Technologies, Inc., Grand Island, N.Y.) supplemented with 5% FBS (Hyclone Laboratories, Logan, Utah) plus 2 mM glutamine, 100 μg/ml streptomycin, 100 IU/ml penicillin, 1×(v/v) nonessential amino acids, 2×(v/v) MEM vitamins, and 1 mM sodium pyruvate (Sigma).
Messenger RNA was isolated from the treated MDA-MB-435 cells (3×150 mm dishes) using the FastTrack 2.0 kit (Invitrogen) according to the manufacturer's instructions. First, 15 ml of lysis buffer was added into the cell pellets and mixed thoroughly. The cell lysates were incubated in 45° C. for 45 min with intermittent inversion. Then, 950 μl of 5 M NaCl stock solution was added and mixed thoroughly. Any remaining DNA was sheared by passing the lysates 3 times through a sterile plastic syringe fitted with a 21 gauge needle. Next, the calculated amount of oligo-dT cellulose was added to each sample and allowed to swell for 2 minutes. The tube was rocked gently in a horizontal position for 60-90 minutes at room temperature. The oligo-dT slurry was centrifuged at 4000 rpm for 5 minutes at room temperature, the supernatant was carefully removed from the resin bed. The oligo-dT cellulose was then resuspended in 20 ml of Binding Buffer by vortexing and centrifuged at 4000 rpm for 5 minutes at room temperature, the binding buffer was removed from the resin bed; this step was repeated with 10 ml of binding buffer. The oligo-dT cellulose was washed three times in 10 ml of Low Salt Wash Buffer and centrifuged. The resulting oligo-dT cellulose was resuspended in 800 μl of Low Salt Wash Buffer using a 1 ml pipette tip with a cut-end and quickly transferred to a spin column seated in a microcentrifuge tube. The column was centrifuged at 1000 rcf (about 3000 rpm on a typical microcentrifuge) for 10 seconds at room temperature and the flow-through liquid was discarded. The transfer and centrifugation steps were repeated until all of the oligo-dT cellulose was in the spin column. Then, the spin column containing the oligo-dT cellulose was placed into a clean microcentrifuge tube. The oligo-dT cellulose was resuspended in 200 μl of preheated Elution Buffer (65° C.) using a 200 μl cut-end pipette tip to gently swirl the cellulose, without puncturing the underlying spin column membrane. The column was allowed to stand for 2 minutes at room temperature and then centrifuged at 1000 rcf for 30 seconds at room temperature. This step was repeated with 200 μl of heated Elution Buffer. Then, 40 μl of 3 M sodium acetate and 1 ml of 95% ethanol were added into the combined 400 μl eluent which contained the mRNA and mixed thoroughly. The mRNA mixture was stored at −80° C. overnight. Thenext day, the mixture was thawed and centrifuged at 14,000 rpm in a microcentrifuge for 15 minutes at 4° C., the ethanol was then carefully removed from the mRNA pellet. The mRNA was washed with 70% ethanol once more and resuspended in 20 μl of Elution Buffer (heated as before). […]

Cc1c(C)c2c(c(C)c1OCC(=O)O)CC[C@@](C)(CCC[C@H](C)CCC[C@H](C)CCCC(C)C)O2 [α-TEA]
Average level (Clone IMAGE: 5311129, mRNA, AI362218): −0.8568
Average level (EST, AI201652): −0.7242
Average level (Homo sapiens transcribed sequence with strong similarity to protein pdb: 1BGM, AA779865): −0.735
Average level (Homo sapiens transcribed sequences, R55747): −0.756
Average level (MRNA full length insert cDNA clone EUROIMAGE 200999, N54993): −0.698
Average level (Transcribed sequences, H99855): −0.8377
Average level (gene AGPAT3, R61733): −0.743
Average level (gene AGTRAP, AA152101): −0.574
Average level (gene AKR1C2, AI924357): −0.865
Average level (gene AMD1, R82299): −0.758
Average level (gene ATOX1, AA418755): −0.898
Average level (gene ATP5G1, AA046701): −0.6558
Average level (gene BAT3, AA598629): −0.5502
Average level (gene BST2, AA485371): −0.5935
Average level (gene C7orf38, AA452899): −0.6558
Average level (gene C9orf58, H48148): −0.5662
Average level (gene C13orf8, AA463267): −0.6892
Average level (gene C14orf24, AA035549): −0.6602
Average level (gene C16orf34, AA045658): −0.7252
Average level (gene CDCA2, AI248208): −0.719
Average level (gene CHD9, R81880): −0.6642
Average level (gene CLCN3, H69811): −0.6208
Average level (gene COX7B, AA629999): −0.8798
Average level (gene CRABP1, AA421218): −0.7923
Average level (gene CRTAP, AA490280): −0.7943
Average level (gene CTNNB1, AW058504): −0.59
Average level (gene CUGBP2, AA047257): −0.8218
Average level (gene CXXC5, R63735): −0.8002
Average level (gene D4ST1, AA922082): −0.6567
Average level (gene DAG1, AA496691): −0.8377
Average level (gene DCT, N27147): −0.8518
Average level (gene DEPDC6, AA621364): −0.93
Average level (gene DHCR24, AA482324): −0.8912
Average level (gene DPY19L2, AA134696): −0.7558
Average level (gene EPHB2, W72792): −0.6663
Average level (gene ERBB3, AA664212): −0.864
Average level (gene ETFB, AI364521): −0.6326
Average level (gene FAM83D, R96941): −0.5566
Average level (gene FBXL13, AA676859): −0.8802
Average level (gene FLJ12973, AI220472): −0.7147
Average level (gene FLJ21901, AI392678): −0.8782
Average level (gene FZD4, AA677200): −0.765
Average level (gene GFER, AA465021): −0.5873
Average level (gene GGH, AA455800): −0.8048
Average level (gene GNG2, N26108): −0.9006
Average level (gene HBS1L, AI003293): −0.6832
Average level (gene HNRPM, AA504272): −0.6512
Average level (gene HSBP1, AA481263): −0.735
Average level (gene IFT122, R97234): −0.585
Average level (gene ITGB8, AI246160): −0.7288
Average level (gene KIAA0664, AI363909): −0.8538
Average level (gene LGALS13, AA706870): −0.8452
Average level (gene LOC151162, H79970): −0.6815
Average level (gene LOC286334, AA425105): −0.8562
Average level (gene LRRK2, AA283609): −0.8566
Average level (gene LTBP3, R60197): −0.6094
Average level (gene MAF1, AA598994): −0.8305
Average level (gene MAN1A2, R22905): −0.8387
Average level (gene MGA, AA011551): −0.74
Average level (gene MGC4692, AA455039): −0.7943
Average level (gene MLANA, N26562): −0.551
Average level (gene MVK, R06716): −0.673
Average level (gene MYEF2, H96671): −0.6864
Average level (gene MYO5A, H20809): −0.6754
Average level (gene NETO2, AA456821): −0.6854
Average level (gene NOV, AW008840): −0.7034
Average level (gene NQO1, AA455538): −0.8166
Average level (gene NUPL1, AA158352): −0.8132
Average level (gene NUPL2, R96358): −0.7312
Average level (gene NUSAP1, AA620485): −0.617
Average level (gene OVOS2, AA600184): −0.9275
Average level (gene PCDHB16, AI218958): −0.7648
Average level (gene PFKFB2, R16146): −0.6214
Average level (gene PLEKHF2, AA886792): −0.8846
Average level (gene SCD, R00707): −0.8732
Average level (gene SFRS2, AA454585): −0.7076
Average level (gene SGCD, AA479286): −0.8855
Average level (gene SLC26A2, AA704222): −0.9114
Average level (gene SLC44A1, R59173): −0.6684
Average level (gene SLC44A1, T61913): −0.6626
Average level (gene SNX12, AA629796): −0.611
Average level (gene SOS1, H64324): −0.6138
Average level (gene STARD7, R37351): −0.7862
Average level (gene TBC1D1, R32437): −0.8948
Average level (gene TBC1D16, AI431804): −0.9208
Average level (gene TMPO, H21943): −0.7848
Average level (gene TMPO, T63980): −0.7846
Average level (gene TNFRSF21, AA490494): −0.8622
Average level (gene TNS3, T74023): −0.8212
Average level (gene TOP2A, AA504348): −0.7142
Average level (gene TREX1, AA279658): −0.861
Average level (gene TRIM2, AA464935): −0.922
Average level (gene TSHZ1, AA426522): −0.865
Average level (gene TWSG1, N91767): −0.6
Average level (gene USP40, H29211): −0.8932
Average level (gene VAV3, H10045): −0.9075
Average level (gene VPRBP, AA644335): −0.702
Average level (gene VPS13D, AI005042): −0.7177
Average level (gene WASPIP, AA283699): −0.8604
Average level (gene ZNF291, AA001504): −0.6362
